A short description of this data set: solvent given as SMILES.

The compound `CCCCCCCCN1C(=O)c2ccc3c4c(-c5ccc(-n6c7ccccc7c7ccccc76)cc5)cc5c6c(ccc(c7c(-c8ccc(-n9c%10ccccc%10c%10ccccc%109)cc8)cc(c2c37)C1=O)c64)C(=O)N(CCCCCCCC)C5=O` came in with an emission maximum (in ClC(Cl)Cl) of 651 nm.

`COc1ccc(N(c2ccc(C=C(c3ccccc3)c3ccccc3)cc2)c2ccc(C=C(c3ccccc3)c3ccccc3)cc2)cc1`: where the note is “in Cc1ccccc1”, the emission maximum stood at 477 nm.

Turning to `c1ccc2c(c1)c1ccccc1c1[nH]c(-c3ccc(-c4nc5c6ccccc6c6ccccc6c5[nH]4)cc3)nc21`, the emission maximum by setting is: (in C1CCOC1) 456 nm; (in CC#N) 462 nm; (in CCO) 461 nm; (in CS(C)=O) 430 nm; (in ClCCl) 465 nm.

Compound `Cc1c(C)c(B(c2c(C)c(C)c(C#N)c(C)c2C)c2c(C)c(C)c(N3c4ccccc4Oc4ccccc43)c(C)c2C)c(C)c(C)c1C#N` had an emission maximum (in c1ccc([Si](c2ccccc2)(c2ccc(-n3c4ccccc4c4ccccc43)cc2)c2ccc(-n3c4ccccc4c4ccccc43)cc2)cc1) of 533 nm.

Consider `O=C(/C=C(\O)c1ccc(N2c3ccccc3Oc3ccccc32)cc1)c1ccc(N2c3ccccc3Oc3ccccc32)cc1`, for which the emission maximum (in Cc1ccccc1) was 594 nm and the emission maximum (in c1ccc2c(c1)c1ccccc1n2-c1ccc(-c2ccc(-n3c4ccccc4c4ccccc43)cc2)cc1) amounted to 550.32 nm.

Consider `N#CC(C#N)=Cc1cn(-c2ccccc2)nc1-c1ccccc1`, for which the emission maximum runs as follows: (in C1CCOC1) 427 nm; (in C1COCCO1) 426 nm; (in CCO) 426 nm; (in CCOC(C)=O) 427 nm; (in CN(C)C=O) 438 nm; (in CO) 426 nm. For the same compound, the emission maximum (in CS(C)=O) is 443 nm, the emission maximum (in Cc1ccccc1) came out at 430 nm, the emission maximum (in ClC(Cl)Cl) stood at 432 nm and the emission maximum (in ClCCl) was determined as 430 nm.

With `C[n+]1ccc(/C=C/c2cc[n+](C)cc2)cc1`, the emission maximum (in CC#N) came to 372 nm.

Turning to `Nc1ccc2c(c1)NC(=O)CC(=O)N2`, where the note is “in CS(C)=O”, the emission maximum was found to be 385 nm.

`CCOC(=O)c1sc2nc(-c3ccccc3)c(C)c(C#N)c2c1N` gave an emission maximum (in C1COCCO1) of 554 nm; an emission maximum (in CC#N) of 570 nm; an emission maximum (in CCO) of 580 nm; an emission maximum (in CCOC(C)=O) of 558 nm; an emission maximum (in ClC(Cl)Cl) of 550 nm; an emission maximum (in c1ccccc1) of 549 nm.

In the case of `c1ccc(CO[Si]23n4c5c6ccccc6c4/N=C4N=C(/N=c6/c7ccccc7c(n62)=c2c6ccccc6c(n23)=N5)c2ccccc2\4)cc1` (configuration not stated), the emission maximum (in CN(C)C=O) is reported as 671 nm.

The compound `CC[n+]1c(-c2ccccc2)c2cc(NC(=O)N[C@H]3C[C@@H]([NH3+])[C@H](O)[C@@H](O)[C@@H]3O)ccc2c2ccc(NC(=O)N[C@@H]3C[C@H]([NH3+])[C@@H](O)[C@@H](O)[C@H]3O)cc21` returned an emission maximum (in O) of 522 nm.

For the compound `CCCCn1c2ccccc2c2cc(C#Cc3ccc4ccc5cccc6ccc3c4c56)ccc21`, the emission maximum (in ClCCl) is 450 nm.

Compound `COc1ccc(-n2c(-c3ccc(-c4cncc5ccccc45)cc3)nc(-c3ccccc3)c2-c2ccccc2)cc1` gave an emission maximum (in C1CCOC1) of 432 nm.

In the case of `CCC1(CC)c2cc(C#Cc3cc(C#Cc4ccc5c(c4)C(CC)(CC)c4cc(N(c6ccccc6)c6ccccc6)ccc4-5)c4ccc5c(C#Cc6ccc7c(c6)C(CC)(CC)c6cc(N(c8ccccc8)c8ccccc8)ccc6-7)cc(C#Cc6ccc7c(c6)C(CC)(CC)c6cc(N(c8ccccc8)c8ccccc8)ccc6-7)c6ccc3c4c65)ccc2-c2ccc(N(c3ccccc3)c3ccccc3)cc21`, the emission maximum came out at 524 nm (in C1CCCCC1); 552 nm (in C1CCOC1); 545 nm (in CCOC(C)=O); 557 nm (in CN(C)C=O); 535 nm (in Cc1ccccc1); 545 nm (in ClC(Cl)Cl). Where the note is “in ClCCl”, this compound came in with an emission maximum of 567 nm.

Consider `CC1(C)c2ccccc2N(c2ccc(-c3ccc(C#N)nc3)cc2)c2ccccc21`, for which the emission maximum came to 488 nm (in Cc1ccccc1) and 490 nm (in N#Cc1ccc2c(c1)c1ccccc1n2-c1cccc(-n2c3ccccc3c3ccccc32)c1).

In the case of `O=C1OC(c2ccccc2)=N/C1=C\c1ccccc1`, the emission maximum (in C1COCCO1) is 447 nm.

Regarding `CN(C)c1ccc(/C=C/c2cc[n+](C)c3ccccc23)cc1`, the emission maximum (in CC#N) was 703 nm, the emission maximum (in ClCCl) is listed as 680 nm and the emission maximum (in O) was 698 nm.

As to `COc1ccc(C2=CC(c3cc(OC)cc(OC)c3)=[O+][B-](F)(F)O2)cc1`, the emission maximum is recorded as 587.1 nm (in CC#N); 556.04 nm (in CC(C)=O); 410.21 nm (in CCCCCC); 450.94 nm (in Cc1ccccc1); 525 nm (in ClCCl).

Compound `COc1cc(-c2nc(-c3ccccc3)c3ccccn23)ccc1O` came in with an emission maximum (in CC#N) of 489 nm.

Regarding `CCOC(=O)c1c(-c2cc3c(ccc4ccccc43)oc2=O)nn(-c2cccc(C)c2)c1C(=O)OCC`, the emission maximum (in ClCCl) is on record as 440 nm.

With `C[Si]1(C)C(c2ccccc2)=Cc2ccccc21`, the emission maximum (in ClCCl) stood at 390 nm.

The compound `O=c1cc(-c2ccccc2)oc(-c2nc3ccccn3c2NC2CCCCC2)c1` showed an emission maximum (in ClCCl) of 475 nm.

In the case of `Cc1cc2nc3[nH]c(=O)[nH]c(=O)c3nc2cc1C`, the emission maximum (in CC#N) is 437 nm.

The compound `CCCCC1(CCCC)c2cc(C#Cc3ccc(C=C(c4ccccc4)c4ccccc4)cc3)ccc2-c2ccc(C#Cc3ccc(C=C(c4ccccc4)c4ccccc4)cc3)cc21` came in with an emission maximum (in C1CCOC1) of 416 nm.

The compound `CCOC(=O)/C(C)=C/C1=C(c2ccc(C)cc2)C2=Nc3c(-c4ccc(C)cc4)c(Br)c(-c4ccc(C)cc4)n3[B-](F)(F)[N+]2=C1c1ccc(C)cc1` had an emission maximum (in ClC(Cl)Cl) of 702 nm.

Consider `CCOC(=O)c1c(-c2cc3ccc(OC)cc3oc2=O)nn(-c2cccc(C)c2)c1C(=O)OCC`, for which the emission maximum (in ClCCl) is given as 422 nm.

The compound `CC1(C)c2ccccc2-c2sc3ccccc3c21` came in with an emission maximum (in ClCCl) of 354 nm.

`Clc1ccc(-c2nc3ccccc3n2-c2ccccc2)cc1`: the emission maximum (in CC#N) was determined as 367 nm.

Under “in C1CCOC1”, `c1ccc(/C(=C(\c2ccccc2)c2cc(-c3ccccc3)ccc2-c2ccccc2)c2cc(-c3ccccc3)ccc2-c2ccccc2)cc1` came in with an emission maximum of 489 nm.

For the setting “in CCCCCC”, `CC(C)[Si](C#Cc1c2nsnc2c(C#C[Si](C(C)C)(C(C)C)C(C)C)c2nc3c(ccc4ccccc43)nc12)(C(C)C)C(C)C` registered an emission maximum of 617 nm.

As to `c1ccc2c(c1)-c1ccccc1C21c2ccccc2-c2c1c1c3ccccc3ccc1c1ccccc21`, the emission maximum (in C1CCOC1) is listed as 417 nm.

Where the note is “in ClC(Cl)Cl”, `CCN(CC)c1ccc2cc(-c3ccc(-c4c5ccccc5c(-c5ccc(-c6cc7ccc(N(CC)CC)cc7oc6=O)cc5)c5ccccc45)cc3)c(=O)oc2c1` displayed an emission maximum of 472 nm.

Compound `O=[N+]([O-])c1ccc(N/C=C/C=[NH+]c2ccc([N+](=O)[O-])cc2)cc1` displayed an emission maximum (in CS(C)=O) of 508 nm.

Where the note is “in ClC(Cl)Cl”, `CCC1=C(CC)C(C)=[N+]2C1=Cc1c(C)c3cc4c(cc3n1[B-]2(F)F)=[N+]1C(=Cc2c(CC)c(CC)c(C)n2[B-]1(F)F)C=4C` yielded an emission maximum of 703 nm.

As for `COc1c2ccccc2c(OC)c2c(C#Cc3ccccc3)c3cc4sccc4cc3c(C#Cc3ccccc3)c12`, the emission maximum (in ClCCl) was determined as 672 nm.

The compound `C(=C\c1nc(-c2ccccc2)c2ccccn12)/c1nc(-c2ccccc2)c2ccccn12` gave an emission maximum (in CC#N) of 491 nm.

As to `CCCCCCCc1ccc(C2=[N+]3C(=C4c5cc(OCC(CC)CC)c(-c6ccc(CCCCCCC)o6)n5[B-](F)(F)[n+]5nnn(c54)[B-]3(F)F)C=C2OCC(CC)CC)o1`, the emission maximum runs as follows: (in C1CCOC1) 829 nm; (in ClCCl) 835 nm.

Regarding `c1ccc(-c2c3ccccc3c(-c3ccc4ccccc4c3)c3ccccc23)nc1`, the emission maximum (in ClCCl) is on record as 431 nm.

With `CN(C)c1ccc2nc(/C=C/c3cc4c5c(c3)CCCN5CCC4)c(=O)oc2c1`, the emission maximum is recorded as 543 nm (in C1CCCCC1); 611 nm (in C1COCCO1); 709 nm (in CC#N); 679 nm (in CC(C)=O); 540 nm (in CCCCCCC); 705 nm (in CCO). Also, the emission maximum runs as follows: (in CCOC(C)=O) 628 nm; (in CN(C)C=O) 704 nm; (in CS(C)=O) 715 nm; (in Cc1ccccc1) 596 nm; (in ClC(Cl)Cl) 671 nm; (in ClCCl) 678 nm.

Take `CCN(CC)c1ccc2cc(-c3nc4cc(C(=O)Nc5ccccc5)ccc4o3)c(=O)oc2c1`: the emission maximum (in ClCCl) was found to be 495 nm.

For `c1ccc(-c2oc(-c3ccccc3)c3ccccc23)cc1`, the emission maximum (in C1CCCCC1) was 448 nm; the emission maximum (in C1CCOC1) came out at 451 nm; the emission maximum (in CC#N) is given as 452 nm; the emission maximum (in CCO) is 451 nm; the emission maximum (in CN(C)C=O) amounted to 458 nm; the emission maximum (in CS(C)=O) came out at 460 nm. Besides, the emission maximum (in Cc1ccccc1) amounted to 454 nm.

For `Fc1ccc(-c2ccc(-c3cc(-c4ccccn4)nc(-c4ccccn4)c3)cc2)c(F)c1`, the emission maximum (in ClCCl) came out at 358 nm.

`Nc1ncc2nc[nH]c2n1` had an emission maximum (in O) of 380 nm.

The compound `N#C/C(=C\c1ccc(C#N)cc1)c1nc(-c2ccc(Cl)cc2)c(-c2ccccc2)s1` came in with an emission maximum (in CC#N) of 522 nm.

In the case of `CCn1c2ccccc2c2ccc(C#N)cc21`, for the setting “in C1CCCCC1”, the emission maximum came to 373 nm.

Take `CN(C)c1ccc(C2=C3C=C(c4ccc(C=C(C#N)C#N)cc4)S[C@]34c3ccccc3[C@H]2c2ccccc24)cc1`: the emission maximum (in ClCCl) is recorded as 748 nm.

In turn, `CCN(CC)c1ccc(-c2nc(Oc3ccc(-c4nc5ccccc5s4)cc3)nc(Oc3ccc(-c4nc5ccccc5s4)cc3)n2)cc1` gave an emission maximum (in CN(C)C=O) of 419 nm.

For `C(=C(c1ccccc1)c1ccccc1)c1ccc(C=C(c2ccccc2)c2ccccc2)cc1`, under “in C1CCOC1”, the emission maximum is given as 461 nm.

For the setting “in CCO”, `Cn1c2cc(N3CCCCC3)c(F)cc2c(=O)c2cc(F)c(N3CCCCC3)cc21` registered an emission maximum of 455 nm.

For `CC1=C(c2cccs2)C(C)=[N+]2C1=C(c1ccccc1)c1c(C)c(-c3cccs3)c(C)n1[B-]2(F)F`, the emission maximum by setting is: (in CO) 610 nm; (in Cc1ccccc1) 609 nm; (in ClCCl) 609 nm.
